Assay: Henry solubility constant Hcp at 298.15 K (mol/(m3 Pa))
Settings: reference: Mazza (1980)

Structure (SMILES)	Henry solubility constant Hcp
C=CCSCC=C [3,3'-thiobis-1-propene]	0.0071
CC(C)O [2-propanol]	2.1
C=CCSSCC=C [4,5-dithia-1,7-octadiene]	0.0075
CCCSC [methyl propyl sulfide]	0.0043
Cc1ccc(C)s1 [2,5-dimethylthiophene]	0.0037
CCCS [1-propanethiol]	0.0009
CCCSSCCC [dipropyl disulfide]	0.018
C=CCSC [allyl methyl sulfide]	0.005
CCO [ethanol]	6.2
CCCO [1-propanol]	3.7

— Sander's compilation of Henry's law constants (doi:10.1111/j.1365-2621.1980.tb00916.x)
